{
  "source": "patent US20200399392A1",
  "about": "“INHIBITORS OF PLA2-G1B COFACTORS FOR TREATING CANCER” (priority 2018, published 2020)",
  "key": {"[1]": {"tested_on": "pSTAT5 NT in CD4 T cells", "assay": "PLA2-GIB bioassay on CD4 T cells: pSTAT5 nuclear translocation in response to IL-7, confocal microscopy", "format": "cell-based, human", "text": "Purification of Human CD4 T-lymphocytes—Venous blood was obtained from healthy volunteers through the EFS (Etablissement Français du Sang, Centre Necker-Cabanel, Paris). CD4 T-cells were purified from whole blood using RosetteSep Human CD4+ T cell Enrichment Cocktail (Stem Cell, 15062). This cocktail contains mouse and rat monoclonal antibodies purified from mouse ascites fluid or hybridoma culture supernatant, by affinity chromatography using protein A or Protein G sepharose. These antibodies are bound in bispecific tetrameric antibody complexes which are directed against cell surface antigens on human hematopoietic cells (CD8, CD16, CD19, CD36, CD56 CD66b, TCRγ/δ) and glycophorin A on red blood cells. The rosetteSep antibody cocktail crosslinks unwanted cells in human whole blood to multiple red blood cells, forming immunorosettes. This increases the density of unwanted cells, such that they pellet along with the free red blood cells when centrifuged over a buoyant density medium such as lymphocytes separation medium (Eurobio, CMSMSL01-01).\nWhole blood was incubated with RosetteSep Human CD4+ T cell Enrichment Cocktail at 50 μl/ml for 20 minutes at room temperature under gentle shaking (100 rpm), diluted with an equal volume of PBS+2% foetal bovine serum (FBS) and mixed gently. The diluted samples were centrifuged 20 minutes at 1200×g on top of lymphocytes separation medium. The enriched cells were then collected from the density medium at plasma interface and washed twice with PBS+2% FBS. Cells were subsequently resuspended in RPMI 1640 medium (Lonza) supplemented with 5% FBS, 50 mM HEPES pH 7.4, glutamine, penicillin, streptomycin and fungizone (complete medium), counted with a Moxi Z mini automated cell counter (ORFLO, MXZ000). Cells suspension was adjusted at 7×10^6 cells/ml and equilibrated at least 2 h at 37° C. in a 5% CO2 humidified atmosphere.\nThe enriched CD4-T cell population was controlled by flow cytometry on a cytoflex (Beckman coulter). The quiescence of recovered CD4 T-cells was controlled by the low level of IL-2Rα (CD25)."}, "[2]": {"tested_on": "PLA2-GIB", "assay": "PLA2-GIB enzymatic assay on [3H] arachidonic acid labelled Jurkat E6.1 T cells", "format": "cell-based, human", "method": "Jurkat E6.1 T cells (ECACC 88042803) or gC1qR KO Jurkat E6.1 T cells were incubated for 17 h at 5×10^5 cells/ml with 1 μCi/ml of arachidonic acid [5,6,8,9,11,14,15-^3H(N)] (Perkin Elmer, NET298Z250UC) in RPMI 1640 medium (Lonza) supplemented with 10% FBS, 50 mM HEPES pH 7.4, glutamine, penicillin, streptomycin and fungizone at 2 ml/well in 6-well plates at 37° C. in a 5% CO2 humidified atmosphere. Cells were washed twice with RPMI with 10% FBS by centrifugation at 300×g for 10 minutes at room temperature and then frozen in 90% FBS 10% DMSO at 10^7 cells/ml/vial at −80° C. Percent of [3H] arachidonic acid in CD4 T cells is the (1 minus ratio of [3H] arachidonic acid in the supernatant of CD4 T cells without cells (cpm/ml) on total [3H] arachidonic acid in supernatant and cells (cpm/ml).\nTo test PLA2-GIB activity on [3H] arachidonic acid labelled Jurkat E6.1 T lymphocytes, cells were unfrozen in 10% FBS RPMI preheated at 37° C. by centrifugation at 300×g for 10 minutes at room temperature, washed twice in 2.5% FBS RPMI, and equilibrated at 5×10^4 or 10^5 Jurkat E6.1 T cells/400 μl/well in 24-well polystyrene plates for 1 h30 at 37° C. in a 5% CO2 humidified atmosphere. Then HCV core solution or vehicle dilution in 2.5% FBS RPMI at 5.95 μM was mixed with an equal volume of a PLA2GIB solution at 630 nM or 2 μM 2.5% FBS RPMI and 100 μl were added per well at the same time for 2 h. For peptide treatments, cells were pretreated for 2 h, 4 h or 21 h, as indicated on figures, with 50 μl per well of peptide solutions at 110 μM or 55 μM in 2.5% FBS RPMI. Then 50 μl per well of PLA2-GIB at 630 nM or 2 μM 2.5% FBS RPMI or medium alone were added for 2 h. Cells and supernatant were collected in eppendorf tubes and centrifuged at 580×g for 10 minutes at room temperature. The [3H] arachidonic acid released in cell supernatant was quantified in 300 μl with 16 ml of Ultima gold (Perkin Elmer, 6013329) in low diffusion vials (Perkin Elmer, 6000477) on a counter (tri-Carb 2800 TR liquid scintillation analyzer, Perkin Elmer)."}},
  "data": [
    {"substance": "NH2-PWNASWSNKSLDDIW—COOH (H-PWNASWSNKSLDDIW-OH) [PEP3]", "values": [
      {"measurement": "inhibition of pSTAT5 NT", "setting": "[1]; 0.025 μg/ml of PEP3 with 5 nM of PLA2-GIB, FIG. 5B", "result": 18, "unit": "%"},
      {"measurement": "inhibition of pSTAT5 NT", "setting": "[1]; 0.5 μg/ml of PEP3 alone, n=3 donors, FIG. 5C", "result": 5, "unit": "%"},
      {"measurement": "effect on pSTAT5 NT", "setting": "[1]; peptide alone, without PLA2-GIB, FIG. 5B", "result": "no effect"},
      {"measurement": "PLA2-GIB activity vs scrambled PEP3", "setting": "[2]; Jurkat E6.1 WT cells, pretreatment 21 h, FIG. 13", "result": "increased significantly"},
      {"measurement": "PLA2-GIB activity on the membrane of Jurkat E6.1 T cells vs scrambled PEP3", "setting": "[2]; pretreatment 4 h or more with peptide 11 μM, 200 nM PLA2-GIB, FIG. 11", "result": "significantly increased"}
    ]}
  ]
}
